Laboratory results reported in article PMC5795052 (Open Biology, 2018).

Experiments:
ACKR3 [1] = test: β-arrestin 2 recruitment assay (PRESTO-Tango) for ACKR3 co-expressed with pcDNA3 or HA-AVPR1A; type: cell-based, human; settings: cells co-expressing ACKR3-Tango and AVPR1A, TM peptides 10 µM, 30 min at 37°C, figure 9h; for effect of TM peptides on efficacy of aVP to induce β-arrestin 2 recruitment to ACKR3-Tango: then aVP, versus vehicle
Excerpt: The human AVPR1A cDNA sequence was from the AVPR1A-TANGO plasmid (Addgene, plasmid #66225). The hRLuc cDNA was PCR-amplified from pIRES-Myc-hCXCR4-Rluc, which was generously provided by Dr Michel Bouvier, with primers carrying the AgeI and XbaI sites at either end, respectively, and ligated with the C-terminus of AVPR1A at the corresponding sites. Human CXCR4 and ACKR3 cDNAs were from the CXCR4-TANGO (Addgene, plasmid #66262) and the ACKR3-TANGO (Addgene, plasmid #66265) plasmids. The EYFP cDNA was PCR-amplified from pEYFP with primers harbouring AgeI and XbaI sites and ligated with the C-terminus of ACKR3. All plasmids were confirmed by sequencing.
(§1) hVSMCs (primary aortic smooth muscle cells, ATCC PCS-100-012), A7r5 cells (ATCC-CRL-1444) and HEK293T cells (ATCC-CRL-11268) were purchased from American Type Culture Collection. hVSMCs were cultured in vascular basal media (ATCC PCS-100-030) supplemented with the vascular smooth muscle growth kit (ATCC PCS-100-042), containing 100 U ml^−1 penicillin and 100 µg ml^−1 streptomycin. hVSMCs were used between passages 2–5. HEK293T and A7r5 cells were cultured in high-glucose Dulbecco's Modified Eagle's Medium containing 10 mg ml^−1 sodium pyruvate, 2 mM L-glutamine, 10% (vol/vol) FBS, 1× non-essential amino acids, 100 U ml^−1 penicillin and 100 µg ml^−1 streptomycin. The HTLA cell line, a HEK293 cell line stably expressing a tTA-dependent luciferase reporter and a β-arrestin 2–TEV fusion gene were generously provided by the laboratory of Dr Bryan Roth and maintained in high-glucose Dulbecco's Modified Eagle's Medium supplemented with 10% (vol/vol) FBS, 1× non-essential amino acids, 100 U ml^−1 penicillin, 100 µg ml^−1 streptomycin, 50 µg ml^−1 hygromycin B and 2 µg ml^−1 puromycin. All cells were cultured in a humidified environment at 37°C, 5% CO2.
The PRESTO-Tango (parallel receptorome expression and screening via transcriptional output, with transcriptional activation following arrestin translocation) assay was performed as recently described. The Tango plasmids were a gift from Dr Bryan Roth (all from Addgene). HTLA cells (2.5 × 10^5 per well) were seeded in a six-well plate and transfected with 1.5 µg of the Tango plasmids using Lipofectamine 3000 (ThermoScientific). The following day, transfected HTLA cells (1 × 10^5 cells per well) were plated onto poly-L-lysine precoated 96-well microplates and allowed to attach to the plate surface for at least 4 h prior to treatment. Proteins used for treatment were prepared in twice the final concentration in culture media, added at a 1 : 1 vol/vol ratio and incubated overnight at 37°C, 5% CO2 in a humidified environment. The following morning, media were removed from cell culture plates and replaced with a 100 µl 1 : 5 mixture of Bright-Glo (Promega) and 1× HBSS, 20 mM HEPES solution. Plates were then incubated at room temperature before measuring luminescence on a Biotek Synergy II plate reader.

[2] = test system: aVP-induced IP3 production in hVSMC; test: IP3 production (ELISA) in hVSMC upon aVP stimulation; type: cell-based, human; settings: TM peptides 10 µM, 30 min at 37°C, then aVP 1 µM, 5 min; n = 4; figure 8c
Protocol: as §1
ACKR3 and CXCR4 siRNA gene silencing was performed as described previously. In brief, cells were grown in 2 ml Accell siRNA delivery media per well (Dharmacon) in six-well plates (Nunc). Commercially available Accell ACKR3 and CXCR4 siRNA were reconstituted with 1× siRNA buffer to a stock concentration of 100 µM. Cells were then transfected with 1 µM ACKR3/CXCR4 siRNA and incubated for 72 h at 37°C, 5% CO2. Accell NT-siRNA pool was used as a negative control. After 72 h, cells were assayed for receptor cell surface expression and used for signalling experiments.
IP3 enzyme-linked immunosorbent assays were purchased from LS Bio and performed as per the manufacturer's protocol (LS BIO F10644). In brief, hVSMCs were grown to confluency in six-well dishes (Nunc) and then treated as described in the Results section. Cells were then washed once with cold PBS, 225 µl of cold PBS was added to each well and cells were lysed by ultrasonication. The cell lysate was centrifuged for 10 min at 4°C at 1500g to remove cellular debris. The total protein concentration in the supernatant was determined with the Bio-Rad DC Protein Assay as per the manufacturer's protocol (Bio-Rad 500-0116). Equivalent amounts of total protein were added to the ELISA strips diluted in the provided sample diluent (1 : 5 and 1 : 10). The assay was then completed as per the manufacturer's protocol. Optical densities were read on a Biotek Synergy II microplate reader (absorbance at 450 nm), and IP3 concentrations were extrapolated from the standard curve.

ACKR3 [3] = settings: ref [21]; cited from earlier work
Protocol: The effects of the TM peptide analogues of ACKR3 on aVP-induced recruitment of β-arrestin 2 to ACKR3-Tango in cells co-expressing ACKR3-Tango and AVPR1A are shown in figure 9h.

ACKR3 : AVPR1A heteromer = test: PLA signals for ACKR3 : AVPR1A interactions in hVSMC; type: cell-based, human; settings: 10 µM, 30 min at 37°C; figure 8b; *p < 0.05 versus vehicle
Protocol: as §1
(§2) PLAs were performed as described in detail previously. In brief, cells were grown and fixed on eight-well chamber slides (Nunc). […]

CXCR4 : AVPR1A heteromer = test: PLA signals for CXCR4 : AVPR1A interactions in hVSMC; type: cell-based, human; settings: 10 µM, 30 min at 37°C; figure 8b
Protocol: as §1, §2

Row | Sequence | effect of TM peptides on efficacy of aVP to induce β-arrestin 2 recruitment to ACKR3-Tango (ACKR3 [1]) | effect of TM peptides on aVP-induced IP3 production [2] | behaviour in β-arrestin 2 recruitment to ACKR3-Tango upon agonist stimulation (ACKR3 [3]) | effect of TM peptides on PLA signals for AVPR1A : ACKR3 interactions (ACKR3 : AVPR1A heteromer) | inhibition of aVP-induced β-arrestin 2 recruitment to ACKR3-Tango (comparison TM2/TM4) (ACKR3 [1]) | mode of antagonism of aVP-induced β-arrestin 2 recruitment to ACKR3-Tango (ACKR3 [1]) | effect of TM peptides on PLA signals for AVPR1A : CXCR4 interactions (CXCR4 : AVPR1A heteromer)
1 | DDDLHVTQCLSLVHCCVNPVLYSFIN [TM7, peptide analogue of transmembrane helix 7 (TM7) of ACKR3, described previously [21]] | did not show significant effects | ineffective | inactive |  |  |  | 
2 | VVCILWLLAFCVSLPDTYYLDD [TM4, peptide analogue of transmembrane helix 4 (TM4) of ACKR3, described previously [21]] | significantly reduced the efficacy of aVP to induce β-arrestin 2 recruitment | inhibited aVP-induced IP3 production | behaviour similar to the TM2 peptide, but this effect did not reach statistical significance | reduced PLA signals for AVPR1A : ACKR3 interactions | inhibited aVP-induced β-arrestin 2 recruitment to ACKR3-Tango with comparable efficacy | non-competitive antagonists | did not increase AVPR1A : CXCR4 interactions
3 | YILNLAIADLWVVLTIPVWVVDDD [TM2, peptide analogue of transmembrane helix 2 (TM2) of ACKR3, described previously [21]] | significantly reduced the efficacy of aVP to induce β-arrestin 2 recruitment | inhibited aVP-induced IP3 production | competitive antagonist | reduced PLA signals for AVPR1A : ACKR3 interactions | inhibited aVP-induced β-arrestin 2 recruitment to ACKR3-Tango with comparable efficacy | non-competitive antagonists | did not increase AVPR1A : CXCR4 interactions
